We go through 7 compounds from US20100178326A1, “AMINOPHOSPHONATE CARRIERS FOR LIPOSOME-BASED DRUG RELEASE SYSTEMS” (priority 2008, published 2010).

The experiment in a line: Liposome alanine efflux coupled with enzymatic assays. The following applies: alanine efflux after one hour of exposure; alanine-loaded DPPC/cholesterol (3:1) liposomes; carrier added in DMSO; control with no carrier 0.7. On the procedure: Two sets of tests were undertaken to determine the viability of such aminophosphonate compounds as drug carriers in liposome-based delivery systems. The first evaluated liposome efflux coupled with enzymatic assays. In such an experiment, unilamellar liposomes loaded with 300 mM of alanine (an amino acid) were prepared from dipalmitoyl phosphatidyl choline (DPPC) and cholesterol (3:1 molar ratio) (in accordance with Torchilin, V. et al., Liposomes 2003, Second Edition, Oxford Press). Several samples of alanine-loaded liposomes were then loaded further with identical amounts of the different aminophosphonate carriers from above (with DMSO as a solvent) thereby producing different samples with different carriers but with same concentrations. The liposomes were then measured for alanine efflux after one hour of exposure as the conversion of alanine to pyruvate, catalyzed by Glutamic-Pyruvic Transmaminase enzyme, and further to lactate, catalyzed by the enzyme Lactate Dehydrogenase, accompanied by the oxidation of nicotinamide cofactor NADH to NAD^+ (as monitored by UV spectroscopy). The results are tabulated below (with a control of no carrier): […]

As for `CCCCOP(=O)(OCCCC)C1(Nc2ccccc2)CCCCC1` [Example 7], the “Alanine Flux” value is 4.4 nmol/h × m^2. Turning to `COP(=O)(OC)C(C)(C)Nc1ccccc1` [Example 6], the “Alanine Flux” value is 7.8 nmol/h × m^2. Turning to `CCCCC(CC)COP(=O)(OCC(CC)CCCC)C(C)(C)NCc1ccccc1` (stereo not shown) [Example 3], the “Alanine Flux” value worked out at 4.3 nmol/h × m^2. As for `COP(=O)(OC)C1(NCc2ccccc2)CCCCC1` [Example 4], the figure is 7.2 nmol/h × m^2; as for `CCCCOP(=O)(OCCCC)C1(NCc2ccccc2)CCCCC1` [Example 5], 4.4 nmol/h × m^2; as for `COP(=O)(OC)C(C)(C)NCc1ccccc1` [Example 1], 4.4 nmol/h × m^2. As for `CCCCOP(=O)(OCCCC)C(C)(C)NCc1ccccc1` [Example 2], the figure is 3.1 nmol/h × m^2.
